Results reported in patent US20080199518A1, “Controlled-release formulation of piperazine-piperidine antagonists and agonists of the 5-HT1A receptor having enhanced intestinal dissolution” (priority 2006, published 2008).
Like-named read-outs stand apart in the source and are kept apart here.

How the values were obtained:
physchem = type: physicochemical
Method: The solubility of one of the compounds described herein, 5-fluoro-8-{4-[4-(6-methoxyquinolin-8-yl)piperazin-1-yl]piperidin-1-yl}quinoline, as a function of pH was determined experimentally. In the study, suspensions of about 0.5-40 mg/mL of the compound were prepared in water and various concentrations of hydrochloric acid and sodium hydroxide. The suspensions were measured for pH after equilibration at ambient temperature. The suspensions were then filtered through a suitable filter for concentrated samples and centrifuged for lower concentrations, with confirmation that the supernatants were particulate-free by laser. The filtrates were then analyzed by HPLC.

[1] = not told

Row | Compound | solubility (physchem; pH greater than about six) | solubility (physchem; water, thermodynamic from solid, trisuccinate salt, aqueous, read-out: aqueous solubility) | permeability [1] | solubility around neutral pH of the lower gastrointestinal tract (physchem) | water solubility (physchem)
1 | COc1cc(N2CCN(C3CCN(c4ccc(F)c5cccnc45)CC3)CC2)c2ncccc2c1.O=C(O)CCC(=O)O.O=C(O)CCC(=O)O.O=C(O)CCC(=O)O [5-fluoro-8-{4-[4-(6-methoxyquinolin-8-yl)piperazin-1-yl]piperidin-1-yl}quinoline trisuccinate] | sub-microgram per milliliter level | ~1 mg/mL | – | – | –
2 | COc1cc(N2CCN(C3CCN(c4ccc(F)c5cccnc45)CC3)CC2)c2ncccc2c1 [5-fluoro-8-{4-[4-[(6-methoxyquinolin-8-yl)piperazin-1-yl]piperidin-1-yl}quinoline] | – | – | high permeability | less than 1 μg/mL | approximately 0.04 μg/mL
